{"source": "patent US12084459B2", "about": "“2-(4-{1-[6-(4-isopropyl-phenyl)-imidazo[2,1-b][1,3,4]thiadiazol-2-yl]-piperidin-4-ylmethyl}-piperazin-1-yl)-ethanol and use thereof” (Urifer Ltd., priority 2020, dated 2024)", "key": {"[1]": {"assay": "insolubility level in PBS/Polysorbate-80 (Tween 80) solution", "format": "physicochemical", "conditions": "0.5 mM and 1 mM in PBS/Polysorbate-80 (Tween 80) solution at 25° C. (FIG. 1A, 1B)"}, "[2]": {"test_system": "normal Epithelial cells", "assay": "effect on normal epithelial cells", "format": "cell-based", "conditions": "FIG. 2", "procedure": "Compound (I) was dissolved in 20% hydroxypropylcyclodextrane and the volume of administration (IP) was 10 ml/kg."}, "[3]": {"test_system": "metastatic colon cancer SW620 cells", "assay": "viability / killing of SW620 cells", "format": "cell-based", "conditions": "E266 versus E260; compound (I) as tartarate salt in 0.5% Tween-80; FIG. 3", "procedure": "(§1) The compound (I), as tartarate salt was dissolved in 0.5% Tween-80 to affect the viability of several cell lines as follows.\n(§2) The effect of the compound (I) (E266) on the growth profile of cancer cells which express Fer was tested. The cells that were tested were: the metastatic colon cancer cell line—SW620, the metastatic pancreatic ductal-adenocarcinoma SU.86.86 cancer cell-line—SU.86.86, the metastatic Triple Negative breast cancer cell line—MDA-MB-231, and the metastatic prostate cancer cell-line—PC3. The effect of the compound (I) (E266) on FS11 cells, a non malignant fibroblastic cell line, was also studied."}, "[4]": {"test_system": "metastatic pancreatic ductal adenocarcinoma Su.86.86 cancer cells", "assay": "viability / killing of Su.86.86 cells", "format": "cell-based", "conditions": "E266 versus E260; compound (I) as tartarate salt in 0.5% Tween-80; FIG. 4", "procedure": "as §1, §2"}, "[5]": {"test_system": "metastatic Triple negative MDA-MB-231 Breast cancer cells", "assay": "viability / killing of MDA-MB-231 cells", "format": "cell-based", "conditions": "E266 versus E260; compound (I) as tartarate salt in 0.5% Tween-80; FIG. 5", "procedure": "as §1, §2"}, "[6]": {"test_system": "metastatic adenocarcinoma PC3 prostate Cancer cells", "assay": "viability / killing of PC3 cells", "format": "cell-based", "conditions": "E266 versus E260; compound (I) as tartarate salt in 0.5% Tween-80; FIG. 6", "procedure": "as §1, §2"}, "[7]": {"test_system": "H358 derived xenografts", "assay": "H358 derived xenografts in Nude mice", "format": "in vivo", "conditions": "25 mg/kg daily intraperitoneal in 1% Tween 80, H358 xenografts, FIG. 7", "text": "In vivo activity of the E266 (compound (I) of the present application) compared to that of the E260 (EP 2401283) in H358 derived xenografts in immune-compromised (Nude) mice.\nIn order to compare the relative efficacy of E266 and E260 in inhibiting the development and progression of malignant tumors in-vivo, the activity in xenograft model in mice was examined for both compounds. H358 derived xenografts in immune-compromised were elicited in (Nude) mice. The H358 cells, which are metastatic bronchioloalveolar carcinoma (BAC)-non-small cell lung cancer (NSCLC) cells, were subcutaneously injected to the back of the nude mice. When the developing xenografts reached 100 mm^3 size, the inflicted animals were divided into three groups, 10 mice in each group. One group received daily intraperitoneal injection of the solvent 1% Tween 80. This solvent/emulsifier is biocompatible and is approved for pharmaceutical applications in humans. The second group received daily intraperitoneal injection of 25 mg/kg E260 dissolved in 1% Tween 80, and the third group got daily intraperitoneal injection of 25 mg/kg, E266 dissolved in the 1% Tween 80, solvent. The progression of the elicited xenografts was monitored by measuring twice a week the volumes of the developing tumors."}}, "data": [{"smiles": "CC(C)c1ccc(-c2cn3nc(N4CCC(CN5CCN(C)CC5)CC4)sc3n2)cc1", "note": "[Compound E260, reference compound]", "values": [{"measurement": "solubility (insolubility level)", "setting": "[1]", "result": "insoluble"}, {"measurement": "effect on normal Epithelial cells", "setting": "[2]", "result": "no effect"}, {"measurement": "killing metastatic colon cancer SW620 cells", "setting": "[3]", "result": "comparable activity"}, {"measurement": "killing metastatic pancreatic ductal adenocarcinoma Su.86.86 cancer cells", "setting": "[4]", "result": "comparable activity"}, {"measurement": "killing metastatic Triple negative MDA-MB-231 Breast cancer cells", "setting": "[5]", "result": "comparable activity"}, {"measurement": "killing metastatic adenocarcinoma PC3 prostate Cancer cells", "setting": "[6]", "result": "comparable activity"}, {"measurement": "progression of the developing tumors (xenograft volume)", "setting": "[7]", "result": "failed to do so"}]}]}
